Drawing on ChEMBL document CHEMBL2069273, “Modulation of cofilin phosphorylation by inhibition of the Lim family kinases” (Bioorg Med Chem Lett, 2012), this text covers IC50 and inhibition for 25 compounds.

Assay [1] deals with LIM domain kinase 2 (Homo sapiens, UniProt P53671). Description: Inhibition of LIMK2.
Assay [2] deals with T1, Dual specificity testis-specific protein kinase 2 (Homo sapiens, UniProt Q96S53). Description: Inhibition of TESK2.
Target sequence in this assay (Q96S53 whole entry): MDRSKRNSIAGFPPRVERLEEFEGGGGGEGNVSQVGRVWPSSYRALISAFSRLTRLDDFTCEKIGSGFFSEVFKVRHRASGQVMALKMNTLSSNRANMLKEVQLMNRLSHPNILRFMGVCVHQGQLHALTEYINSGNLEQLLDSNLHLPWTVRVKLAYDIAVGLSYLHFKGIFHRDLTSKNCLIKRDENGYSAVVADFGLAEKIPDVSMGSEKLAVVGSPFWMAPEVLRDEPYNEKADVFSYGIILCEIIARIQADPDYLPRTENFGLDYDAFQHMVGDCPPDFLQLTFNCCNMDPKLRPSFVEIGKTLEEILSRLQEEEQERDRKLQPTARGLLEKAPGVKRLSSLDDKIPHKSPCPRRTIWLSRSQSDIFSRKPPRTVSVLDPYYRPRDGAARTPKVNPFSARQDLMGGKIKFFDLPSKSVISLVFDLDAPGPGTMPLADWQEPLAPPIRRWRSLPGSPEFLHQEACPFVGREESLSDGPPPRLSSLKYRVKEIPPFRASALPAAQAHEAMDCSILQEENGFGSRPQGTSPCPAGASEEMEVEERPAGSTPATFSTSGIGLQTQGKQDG
The target in assay [3] is Dual specificity testis-specific protein kinase 1 (Homo sapiens, UniProt Q15569). Description: Inhibition of TESK1.
Assay [4] concerns the target LIM domain kinase 1 (Homo sapiens, UniProt P53667). The experiment in a line: Inhibition of LIMK1.
Assay [5] addresses T1, Dual specificity testis-specific protein kinase 2. Description: Inhibition of TESK2 at 30 uM.
Target sequence in this assay (Q96S53 whole entry, looked up): as the sequence (Q96S53 whole entry) above
For assay [6], the target named is Mitogen-activated protein kinase 14 (Homo sapiens, UniProt Q16539). The experiment in a line: Inhibition of MAPK p38alpha.

Structures are written as SMILES.

Sequence of Dual specificity testis-specific protein kinase 1 (Q15569 whole entry, the tested form may be a part): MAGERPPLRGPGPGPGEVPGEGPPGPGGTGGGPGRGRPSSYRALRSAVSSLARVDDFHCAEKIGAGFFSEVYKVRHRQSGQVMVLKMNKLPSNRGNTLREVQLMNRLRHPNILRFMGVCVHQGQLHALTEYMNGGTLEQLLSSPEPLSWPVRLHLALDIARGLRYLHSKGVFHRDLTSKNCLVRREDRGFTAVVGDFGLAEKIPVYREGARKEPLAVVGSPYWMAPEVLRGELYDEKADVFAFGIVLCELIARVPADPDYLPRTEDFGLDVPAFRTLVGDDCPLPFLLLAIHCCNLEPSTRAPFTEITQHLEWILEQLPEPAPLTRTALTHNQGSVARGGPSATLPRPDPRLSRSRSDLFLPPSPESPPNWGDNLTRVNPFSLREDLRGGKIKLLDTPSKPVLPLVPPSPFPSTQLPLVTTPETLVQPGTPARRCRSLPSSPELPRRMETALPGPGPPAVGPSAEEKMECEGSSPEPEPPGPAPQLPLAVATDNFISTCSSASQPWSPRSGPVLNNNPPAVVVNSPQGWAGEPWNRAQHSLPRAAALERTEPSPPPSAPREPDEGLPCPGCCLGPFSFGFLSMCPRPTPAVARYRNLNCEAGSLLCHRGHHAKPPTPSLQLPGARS
Sequence of Mitogen-activated protein kinase 14 (Q16539 whole entry): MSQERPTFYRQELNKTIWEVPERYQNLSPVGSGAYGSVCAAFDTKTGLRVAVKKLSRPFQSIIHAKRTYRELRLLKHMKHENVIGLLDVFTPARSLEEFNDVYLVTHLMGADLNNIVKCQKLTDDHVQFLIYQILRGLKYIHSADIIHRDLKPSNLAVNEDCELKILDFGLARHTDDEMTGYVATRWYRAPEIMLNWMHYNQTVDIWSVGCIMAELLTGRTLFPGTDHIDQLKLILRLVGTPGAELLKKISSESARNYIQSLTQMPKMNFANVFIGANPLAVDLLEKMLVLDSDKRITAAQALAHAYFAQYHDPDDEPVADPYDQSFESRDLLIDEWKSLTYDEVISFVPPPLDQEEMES
Sequence of LIM domain kinase 2 (P53671 whole entry, the tested form may be a part): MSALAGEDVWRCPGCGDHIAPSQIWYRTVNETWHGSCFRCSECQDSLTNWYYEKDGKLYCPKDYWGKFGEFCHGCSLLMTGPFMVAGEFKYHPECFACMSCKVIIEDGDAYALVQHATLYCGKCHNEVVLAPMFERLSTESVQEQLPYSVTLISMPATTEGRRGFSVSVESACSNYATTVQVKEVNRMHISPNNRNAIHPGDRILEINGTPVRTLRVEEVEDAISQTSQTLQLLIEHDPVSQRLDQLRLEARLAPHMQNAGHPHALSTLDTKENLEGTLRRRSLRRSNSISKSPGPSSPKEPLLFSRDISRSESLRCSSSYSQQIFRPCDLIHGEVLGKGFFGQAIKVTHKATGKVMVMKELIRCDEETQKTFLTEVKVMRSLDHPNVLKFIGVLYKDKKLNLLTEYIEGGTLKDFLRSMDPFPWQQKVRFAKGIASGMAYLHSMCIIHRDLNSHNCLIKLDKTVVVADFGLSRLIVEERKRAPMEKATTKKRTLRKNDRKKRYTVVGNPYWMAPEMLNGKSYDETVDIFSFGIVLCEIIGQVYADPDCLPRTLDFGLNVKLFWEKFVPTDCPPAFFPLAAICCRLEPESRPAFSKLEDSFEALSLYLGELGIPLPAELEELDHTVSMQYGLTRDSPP
Sequence of LIM domain kinase 1 (P53667 whole entry, the tested form may be a part): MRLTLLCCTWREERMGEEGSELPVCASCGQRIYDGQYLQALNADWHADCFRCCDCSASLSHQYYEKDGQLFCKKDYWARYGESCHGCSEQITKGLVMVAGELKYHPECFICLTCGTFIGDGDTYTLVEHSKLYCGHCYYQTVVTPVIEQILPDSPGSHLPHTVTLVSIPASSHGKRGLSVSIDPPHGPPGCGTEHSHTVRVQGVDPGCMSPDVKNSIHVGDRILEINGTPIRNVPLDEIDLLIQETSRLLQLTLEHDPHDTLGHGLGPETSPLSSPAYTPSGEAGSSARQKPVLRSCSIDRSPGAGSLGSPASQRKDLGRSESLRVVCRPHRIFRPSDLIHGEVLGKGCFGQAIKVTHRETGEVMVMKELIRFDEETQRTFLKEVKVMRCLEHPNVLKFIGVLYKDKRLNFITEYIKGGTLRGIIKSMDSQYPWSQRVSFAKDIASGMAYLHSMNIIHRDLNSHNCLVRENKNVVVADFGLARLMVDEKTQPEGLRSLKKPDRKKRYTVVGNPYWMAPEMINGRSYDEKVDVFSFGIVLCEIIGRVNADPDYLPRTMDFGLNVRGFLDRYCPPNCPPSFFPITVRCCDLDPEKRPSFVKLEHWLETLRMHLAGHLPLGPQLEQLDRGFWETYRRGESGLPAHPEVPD

For `CNC(=O)Nc1ncc(-c2cc(-c3c(C)cc(OC)cc3C)nc(-c3cnccn3)n2)s1`, the IC50 (as a rule, the point on the concentration scale where inhibition reaches its midpoint) in assay [1] was 16 nM; in assay [2], 415 nM; in assay [3], 1130 nM; in assay [4], 23 nM.
`CCCNc1ncc(-c2cc(-c3cc(OC)ccc3Cl)nc(-c3cnccn3)n2)s1`: the IC50 in assay [1] was 760 nM; in assay [2], greater than 30000 nM; in assay [3] it was greater than 30000 nM; in assay [4], 12500 nM.
`CCCNc1ncc(-c2cc(-c3c(Cl)cc(OC)cc3Cl)nc(-c3cnccn3)n2)s1`: the inhibition (in general, the change of the read-out against control, counted positive when it falls) in assay [5] came out at 72%. Besides, the half-inhibitory concentration (IC50) in assay [1] is 16 nM; in assay [3] it was greater than 30000 nM; in assay [4], 38 nM.
Turning to `CCC(CC)Oc1cc(C)c(-c2cc(-c3cnc(NC(=O)NC)s3)nc(-c3cnccn3)n2)c(C)c1`, the IC50 in assay [1] worked out at 173 nM; in assay [2], 415 nM; in assay [3], 2200 nM; in assay [4], 66 nM.
Taken in the same sequence, the figures for `CCCNc1ncc(-c2cc(-c3c(Cl)cc(OCCC)cc3Cl)nc(-c3cnccn3)n2)s1` were 141 nM, greater than 30000 nM, greater than 30000 nM and 115 nM.
Taken in the same sequence, the figures for `CCCNc1ncc(-c2cc(-c3ccc(OC(CC)CC)cc3C)nc(-c3cnccn3)n2)s1` were 1220 nM, greater than 30000 nM, greater than 30000 nM and 213 nM.
As to `CNC(=O)Nc1ncc(-c2cc(-c3c(Cl)cc(OC)cc3Cl)nc(-c3cnccn3)n2)s1`, the IC50 was 12 nM in assay [1], greater than 30000 nM in assay [2], greater than 30000 nM in assay [3] and 32 nM in assay [4].
Turning to `CCC(CC)Oc1cc(C)c(-c2cc(-c3cnc(NC(=O)OC)s3)nc(-c3cnccn3)n2)c(C)c1`, the half-maximal inhibitory concentration (IC50) in assay [1] is 382 nM; in assay [2], greater than 30000 nM; in assay [3], greater than 30000 nM; in assay [4] it was 227 nM.
As for `CCCNc1ncc(-c2cc(-c3cc(OCCC4CCCCC4)ccc3Cl)nc(-c3cnccn3)n2)s1`, the IC50 was 28 nM in assay [1], greater than 30000 nM in assay [2], greater than 30000 nM in assay [3] and 145 nM in assay [4].
`CCC(CC)Oc1cc(C)c(-c2cc(-c3cnc(NC(=O)C(C)C)s3)nc(-c3cnccn3)n2)c(C)c1`: the IC50 is 245 nM in assay [1], greater than 12500 nM in assay [2], greater than 12500 nM in assay [3] and 172 nM in assay [4].
On to `COc1cc(C)c(-c2cc(-c3cnc(NC(C)=O)s3)nc(-c3cnccn3)n2)c(C)c1`, for which the IC50 in assay [1] is 59 nM; in assay [2] it was 612 nM; in assay [3], 2260 nM; in assay [4] it was 87 nM.
For `CCCNc1ncc(-c2cc(-c3cc(OCCC)ccc3Cl)nc(-c3cnccn3)n2)s1`, the IC50 in assay [1] was 171 nM; in assay [2], greater than 30000 nM; in assay [3] it was greater than 30000 nM; in assay [4], 1040 nM.
Turning to `CCOc1ccc(-c2cc(-c3cnc(NC(C)C)s3)nc(-c3ccccn3)n2)c(Cl)c1`, the figures for the IC50 in assay [4] and in assay [6] were 485 nM and 3940 nM, respectively.
With `COC(=O)Nc1ncc(-c2cc(-c3c(C)cc(OC)cc3C)nc(-c3cnccn3)n2)s1`, the IC50 in assay [1] is 202 nM; in assay [2] it was 2740 nM; in assay [3], 11900 nM; in assay [4], 284 nM.
As for `CCCNc1ncc(-c2cc(-c3c(Cl)cc(OC(CC)CC)cc3Cl)nc(-c3cnccn3)n2)s1`, the IC50 in assay [1] was 1530 nM; in assay [2] it was greater than 30000 nM; in assay [3], greater than 30000 nM; in assay [4], 163 nM.
As for `CCOc1ccc(-c2cc(-c3cnc(NC(C)C)s3)nc(-c3ccccc3F)n2)c(Cl)c1`, the IC50 is greater than 50000 nM in assay [4] and 590 nM in assay [6].
`COc1cc(Cl)c(-c2cc(-c3cnc(NC(C)=O)s3)nc(-c3cnccn3)n2)c(Cl)c1`: the IC50 in assay [1] is 8 nM; in assay [2], greater than 30000 nM; in assay [3], greater than 30000 nM; in assay [4], 30 nM.
Regarding `CCCCCOc1ccc(-c2cc(-c3cnc(NCCC)s3)nc(-c3cnccn3)n2)c(Cl)c1`, the IC50 in assay [1] is 1540 nM; in assay [2], greater than 30000 nM; in assay [3], greater than 30000 nM; in assay [4], 444 nM.
On to `CCCNc1ncc(-c2cc(-c3ccc(O)cc3Cl)nc(-c3cnccn3)n2)s1`, for which the IC50 in assay [1] was greater than 12500 nM; in assay [2] it was greater than 30000 nM; in assay [3] it was greater than 30000 nM; in assay [4], 7730 nM.
As for `CCOc1ccc(-c2cc(-c3cnc(NC(C)C)s3)nc(-c3cnccn3)n2)c(Cl)c1`, the figures for the IC50 in assay [4] and in assay [6] were 368 nM and 2000 nM, respectively.
For `CCC(CC)Oc1cc(C)c(-c2cc(-c3cnc(NC(C)=O)s3)nc(-c3cnccn3)n2)c(C)c1`, the IC50 in assay [1] is 311 nM; in assay [2], 2010 nM; in assay [3] it was greater than 30000 nM; in assay [4], 64 nM.
In the case of `CCCNc1ncc(-c2cc(-c3c(Cl)cc(OC4CCCC4)cc3Cl)nc(-c3cnccn3)n2)s1`, the IC50 was 810 nM in assay [1], greater than 30000 nM in assay [2], greater than 30000 nM in assay [3] and 250 nM in assay [4].
Take `CCCNc1ncc(-c2cc(-c3ccc(OC4CCCC4)cc3Cl)nc(-c3cnccn3)n2)s1`: the IC50 in assay [1] is 50000 nM; in assay [2], greater than 30000 nM; in assay [3] it was greater than 30000 nM; in assay [4], 210 nM.
In the case of `CCCNc1ncc(-c2cc(-c3ccc(OC)cc3Cl)nc(-c3cnccn3)n2)s1`, the 50% inhibitory concentration (IC50) in assay [1] was 1230 nM; in assay [2], greater than 30000 nM; in assay [3], greater than 30000 nM; in assay [4], 1660 nM.
As to `CCCNc1ncc(-c2cc(-c3ccc(OC(CC)CC)cc3Cl)nc(-c3cnccn3)n2)s1`, the IC50 is 50000 nM in assay [1], greater than 30000 nM in assay [2], greater than 30000 nM in assay [3] and 359 nM in assay [4].
